Measurements: paper PMC8206213, “An L-2-hydroxyglutarate biosensor based on specific transcriptional regulator LhgR” (Nature Communications, 2021)
“And” between values parts separate entries of the source, which are not always exact repeats. Equal values may be shown once.

Assay: LHGFR expressed in E. coli BL21(DE3), response to exogenous L-2-HG (time course and dose-response)
Type: cell-based
Conditions: Fig. 5a
Protocol: To characterize the sensitivity and specificity of LHGFR expressed in E. coli BL21(DE3), 90 μL cell suspensions following 8 h carbon starvation were mixed with 10 μL increasing concentrations of L-2-HG or other compounds, and then added into a black 96-well plate (total 100 μL/per well), the fluorescence intensities were determined using an EnSight microplate reader (PerkinElmer, USA) and the following instrument settings: excitation at 430 nm, emission at 485 nm (mTFP) and 528 nm (Venus), time intervals of 5 min, the temperature at 37 °C, and shake at 180 rpm.

SMILES: O=C(O)CC[C@H](O)C(=O)O [L-2-HG, L-2-Hydroxyglutarate]
- Emission ratio (100 μM L-2-HG, 45 min): 1.032 and 1.026 and 1.029
- Emission ratio (100 μM L-2-HG, 50 min): 1.0383 and 1.034 and 1.036
- Emission ratio (100 μM L-2-HG, 55 min): 1.032 and 1.026 and 1.035
- Emission ratio (100 μM L-2-HG, 60 min): 1.021 and 1.025 and 1.037
- Emission ratio (100 μM L-2-HG, 65 min): 1.0313 and 1.027 and 1.042
- Emission ratio (100 μM L-2-HG, 70 min): 1.0328 and 1.039 and 1.045
- Emission ratio (100 μM L-2-HG, 75 min): 1.033 and 1.036 and 1.056
- Emission ratio (100 μM L-2-HG, 80 min): 1.038 and 1.023 and 1.047
- Emission ratio (100 μM L-2-HG, 85 min): 1.027 and 1.0315 and 1.0551
- Emission ratio (100 μM L-2-HG, 90 min): 1.039 and 1.022 and 1.053
- Emission ratio (200 μM L-2-HG, 0 min): 0.9917 and 0.9725 and 0.9805
- Emission ratio (200 μM L-2-HG, 5 min): 1.014 and 1.003 and 1.0079
- Emission ratio (200 μM L-2-HG, 10 min): 1.023 and 1.0171 and 1.02
- Emission ratio (200 μM L-2-HG, 15 min): 1.025 and 1.029 and 1.038
- Emission ratio (200 μM L-2-HG, 20 min): 1.048 and 1.05 and 1.039
- Emission ratio (200 μM L-2-HG, 25 min): 1.049 and 1.058 and 1.042
- Emission ratio (200 μM L-2-HG, 30 min): 1.046 and 1.049 and 1.051
- Emission ratio (200 μM L-2-HG, 35 min): 1.046 (2×) and 1.055
- Emission ratio (200 μM L-2-HG, 40 min): 1.05 and 1.054 and 1.06
- Emission ratio (200 μM L-2-HG, 45 min): 1.052 and 1.0481 and 1.064
- Emission ratio (200 μM L-2-HG, 50 min): 1.061 and 1.056 and 1.069
- Emission ratio (200 μM L-2-HG, 55 min): 1.06 and 1.0497 and 1.072
- Emission ratio (200 μM L-2-HG, 60 min): 1.062 and 1.046 and 1.073
- Emission ratio (200 μM L-2-HG, 65 min): 1.05 and 1.055 and 1.074
- Emission ratio (200 μM L-2-HG, 70 min): 1.061 and 1.042 and 1.07
- Emission ratio (200 μM L-2-HG, 75 min): 1.068 and 1.046 and 1.072
- Emission ratio (200 μM L-2-HG, 80 min): 1.063 and 1.037 and 1.071
- Emission ratio (200 μM L-2-HG, 85 min): 1.058 and 1.051 and 1.076
- Emission ratio (200 μM L-2-HG, 90 min): 1.065 and 1.04 and 1.07
- Emission ratio (1 mM L-2-HG, 0 min): 1.009 and 0.986 and 0.9798
- Emission ratio (1 mM L-2-HG, 5 min): 1.043 and 1.0226 and 1.019
- Emission ratio (1 mM L-2-HG, 10 min): 1.061 and 1.055 and 1.04
- Emission ratio (1 mM L-2-HG, 15 min): 1.087 and 1.082 and 1.067
- Emission ratio (1 mM L-2-HG, 20 min): 1.121 and 1.102 and 1.088
- Emission ratio (1 mM L-2-HG, 25 min): 1.134 and 1.124 and 1.105
- Emission ratio (1 mM L-2-HG, 30 min): 1.1596 and 1.147 and 1.142
- Emission ratio (1 mM L-2-HG, 35 min): 1.168 and 1.165 and 1.162
- Emission ratio (1 mM L-2-HG, 40 min): 1.202 and 1.191 and 1.172
- Emission ratio (1 mM L-2-HG, 45 min): 1.22 and 1.2003 and 1.196
- Emission ratio (1 mM L-2-HG, 50 min): 1.242 and 1.221 and 1.214
- Emission ratio (1 mM L-2-HG, 55 min): 1.254 and 1.245 and 1.226
- Emission ratio (1 mM L-2-HG, 60 min): 1.262 and 1.251 and 1.2291
- Emission ratio (1 mM L-2-HG, 65 min): 1.264 and 1.242 and 1.229
- Emission ratio (1 mM L-2-HG, 70 min): 1.261 and 1.241 and 1.2295
- Emission ratio (1 mM L-2-HG, 75 min): 1.265 and 1.246 and 1.229
- Emission ratio (1 mM L-2-HG, 80 min): 1.265 and 1.238 and 1.24
- Emission ratio (1 mM L-2-HG, 85 min): 1.257 and 1.244 and 1.238
- Emission ratio (1 mM L-2-HG, 90 min): 1.253 and 1.243 (2×)
- Emission ratio (2 mM L-2-HG, 0 min): 1.001 and 0.9869 and 0.9858
- Emission ratio (2 mM L-2-HG, 5 min): 1.042 and 1.028 and 1.0185
- Emission ratio (2 mM L-2-HG, 10 min): 1.085 and 1.067 and 1.059
- Emission ratio (2 mM L-2-HG, 15 min): 1.125 and 1.11 and 1.101
- Emission ratio (2 mM L-2-HG, 20 min): 1.179 and 1.162 and 1.146
- Emission ratio (2 mM L-2-HG, 25 min): 1.241 and 1.208 and 1.197
- Emission ratio (2 mM L-2-HG, 30 min): 1.288 and 1.254 and 1.257
- Emission ratio (2 mM L-2-HG, 35 min): 1.301 and 1.278 and 1.2733
- Emission ratio (2 mM L-2-HG, 40 min): 1.333 and 1.31 and 1.292
- Emission ratio (2 mM L-2-HG, 45 min): 1.337 and 1.329 and 1.307
- Emission ratio (2 mM L-2-HG, 50 min): 1.347 and 1.335 and 1.324
- Emission ratio (2 mM L-2-HG, 55 min): 1.344 and 1.327 and 1.336
- Emission ratio (2 mM L-2-HG, 60 min): 1.352 and 1.339 and 1.329
- Emission ratio (2 mM L-2-HG, 65 min): 1.34 and 1.338 and 1.3346
- Emission ratio (2 mM L-2-HG, 70 min): 1.362 and 1.355 and 1.346
- Emission ratio (2 mM L-2-HG, 75 min): 1.365 and 1.3372 and 1.347
- Emission ratio (2 mM L-2-HG, 80 min): 1.351 and 1.344 (2×)
- Emission ratio (2 mM L-2-HG, 85 min): 1.353 and 1.367 and 1.357
- Emission ratio (2 mM L-2-HG, 90 min): 1.364 and 1.351 and 1.361
- Emission ratio (10 mM L-2-HG, 0 min): 0.9626 and 0.9634 and 0.9687
- Emission ratio (10 mM L-2-HG, 5 min): 1.087 and 1.079 and 1.06
- Emission ratio (10 mM L-2-HG, 10 min): 1.2277 and 1.2165 and 1.18
- Emission ratio (10 mM L-2-HG, 15 min): 1.322 and 1.305 and 1.285
- Emission ratio (10 mM L-2-HG, 20 min): 1.375 and 1.367 and 1.334
- Emission ratio (10 mM L-2-HG, 25 min): 1.391 and 1.39 and 1.353
- Emission ratio (10 mM L-2-HG, 30 min): 1.418 and 1.395 and 1.38
- Emission ratio (10 mM L-2-HG, 35 min): 1.427 and 1.411 and 1.3928
- Emission ratio (10 mM L-2-HG, 40 min): 1.439 and 1.431 and 1.3904
- Emission ratio (10 mM L-2-HG, 45 min): 1.426 and 1.425 and 1.4013
- Emission ratio (10 mM L-2-HG, 50 min): 1.427 and 1.438 and 1.392
- Emission ratio (10 mM L-2-HG, 55 min): 1.431 (2×) and 1.402
- Emission ratio (10 mM L-2-HG, 60 min): 1.432 and 1.435 and 1.413
- Emission ratio (10 mM L-2-HG, 65 min): 1.425 and 1.426 and 1.404
- Emission ratio (10 mM L-2-HG, 70 min): 1.4381 and 1.438 and 1.417
- Emission ratio (10 mM L-2-HG, 75 min): 1.426 and 1.4264 and 1.415
- Emission ratio (10 mM L-2-HG, 80 min): 1.4478 and 1.43 and 1.416
- Emission ratio (10 mM L-2-HG, 85 min): 1.446 and 1.432 and 1.415
- Emission ratio (10 mM L-2-HG, 90 min): 1.432 and 1.427 and 1.418
